In assay [1] the target is T1, rat α4β2 nAChR subtype (Rattus norvegicus, UniProt P09483+P12390).
T1 construct: The cerebral cortex was removed and placed in 20 volumes (weight:volume) of ice-cold preparative buffer; from tissue; host or cells: rat cerebral cortex membranes (female Sprague-Dawley)
Description: Radioligand binding, [3H]nicotine, rat cortex membranes. The settings on record: 5 μM compound, 5 nM 3H-nicotine; Ki not determined.

For the next assay, the target named is T2, human α4β2 nAChR subtype (Homo sapiens, UniProt P17787+P43681).
T2 construct: expressed in transfected cells; host or cells: SH-EP1 clonal cells expressing human α4β2
T2 sequence (P43681 29-627 limits assumed): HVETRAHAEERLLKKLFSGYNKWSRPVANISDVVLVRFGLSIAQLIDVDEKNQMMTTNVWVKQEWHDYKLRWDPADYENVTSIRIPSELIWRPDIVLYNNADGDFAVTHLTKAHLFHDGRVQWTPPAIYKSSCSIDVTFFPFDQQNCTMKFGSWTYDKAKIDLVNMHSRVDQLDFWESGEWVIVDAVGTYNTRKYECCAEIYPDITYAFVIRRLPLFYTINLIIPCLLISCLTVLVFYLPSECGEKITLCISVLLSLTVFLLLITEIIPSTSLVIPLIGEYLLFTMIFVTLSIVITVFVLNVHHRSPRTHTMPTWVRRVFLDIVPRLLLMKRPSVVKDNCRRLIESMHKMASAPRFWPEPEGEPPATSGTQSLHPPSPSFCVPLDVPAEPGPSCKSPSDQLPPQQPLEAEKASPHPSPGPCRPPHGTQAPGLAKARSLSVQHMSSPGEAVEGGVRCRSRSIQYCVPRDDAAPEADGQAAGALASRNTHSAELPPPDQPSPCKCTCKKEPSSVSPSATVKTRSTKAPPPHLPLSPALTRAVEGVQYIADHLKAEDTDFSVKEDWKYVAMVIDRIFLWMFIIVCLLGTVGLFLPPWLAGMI
T2 sequence (P17787 26-502): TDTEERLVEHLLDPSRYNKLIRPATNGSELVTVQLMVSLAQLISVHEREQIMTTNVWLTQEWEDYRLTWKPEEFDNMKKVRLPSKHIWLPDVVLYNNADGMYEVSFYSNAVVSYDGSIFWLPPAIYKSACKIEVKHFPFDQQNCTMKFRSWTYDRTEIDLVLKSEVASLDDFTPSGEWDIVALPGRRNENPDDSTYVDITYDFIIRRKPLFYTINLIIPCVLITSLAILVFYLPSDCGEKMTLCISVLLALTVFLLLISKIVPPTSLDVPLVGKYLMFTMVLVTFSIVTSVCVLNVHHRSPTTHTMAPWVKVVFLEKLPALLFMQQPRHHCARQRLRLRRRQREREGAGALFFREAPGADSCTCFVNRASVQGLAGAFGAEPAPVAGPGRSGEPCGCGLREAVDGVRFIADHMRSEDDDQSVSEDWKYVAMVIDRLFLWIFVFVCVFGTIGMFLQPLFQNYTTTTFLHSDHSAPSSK
Description: Radioligand binding, [3H]nicotine, membranes from SH-EP1/human α4β2 clonal cells. The settings on record: [3H]nicotine 5 nM, SH-EP1/human α4β2 cell membranes.

A further assay addresses T3, α7 nAChR subtype (Rattus norvegicus, UniProt Q05941).
T3 construct: The hippocampus was removed and placed in 10 volumes (weight:volume) of ice-cold preparative buffer; from tissue; host or cells: rat hippocampus membranes (female Sprague-Dawley)
As to the kind of experiment: Radioligand binding, [3H]MLA, rat hippocampus membranes. Particulars: for inhibition at 5 µM: read-out: α7 high through-put screening (HTS) result.

The subject of a further assay is rats. As to the kind of experiment: Novel object recognition (NOR) task. Particulars: oral, 0.3 mg/kg. The assay is classed as in vivo, rat. The procedure:
FIG. 1 is a chart showing the results of a study on object recognition in rats treated orally with N-(propanoyl)-3,7-diazabicyclo[3.3.0]octane. The results are shown as a function of recognition index (%) versus dose (mg/kg). N-(Propanoyl)-3,7-diazabicyclo[3.3.0]octane is active orally in rats at 0.3 mg/kg in novel object recognition (NOR) task.
The novel object recognition (NOR) task was performed in accord with the description of Ennaceur and Delacour Behav. Brain Res. 100: 85-92 (1988).
Certain exemplified compounds were assessed in the NOR task. Thus, N-(propanoyl)-3,7-diazabicyclo[3.3.0]octane (Compound 10-16, Table 1) was active in NOR in rats, at […]. This provides evidence of the efficacy (and potency) of the compounds of the present invention in treating cognitive deficits, attentional disorders and dementias, and the potential of these compounds for human therapy.

In assay [2] the target is T1, rat α4β2 nAChR subtype. As to the kind of experiment: Radioligand binding, [3H]nicotine, rat cortex membranes. The settings on record: [3H]nicotine 5 nM.

Some results are limits rather than exact numbers.

Here are results for twelve compounds from patent US20110071180A1, “SUB-TYPE SELECTIVE AMIDES OF DIAZABICYCLOALKANES” (Targacept, Inc., priority 2008, published 2011).

T1 sequence (P09483 31-630): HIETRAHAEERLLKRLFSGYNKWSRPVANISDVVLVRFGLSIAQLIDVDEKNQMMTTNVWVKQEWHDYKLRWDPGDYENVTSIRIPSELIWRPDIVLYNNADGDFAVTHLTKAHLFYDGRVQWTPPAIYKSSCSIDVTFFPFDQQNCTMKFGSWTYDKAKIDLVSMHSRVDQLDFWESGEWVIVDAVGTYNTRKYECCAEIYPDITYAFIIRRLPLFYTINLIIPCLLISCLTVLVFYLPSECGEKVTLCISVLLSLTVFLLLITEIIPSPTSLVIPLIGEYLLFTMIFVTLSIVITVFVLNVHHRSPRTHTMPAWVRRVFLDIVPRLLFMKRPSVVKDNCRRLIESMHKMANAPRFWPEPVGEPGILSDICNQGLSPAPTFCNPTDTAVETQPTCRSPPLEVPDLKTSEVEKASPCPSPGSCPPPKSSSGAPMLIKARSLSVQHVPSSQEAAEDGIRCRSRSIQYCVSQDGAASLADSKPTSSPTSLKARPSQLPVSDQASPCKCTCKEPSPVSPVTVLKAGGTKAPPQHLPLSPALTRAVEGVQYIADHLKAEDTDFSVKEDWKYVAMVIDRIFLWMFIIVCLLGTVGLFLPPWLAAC
T1 sequence (P12390 25-500): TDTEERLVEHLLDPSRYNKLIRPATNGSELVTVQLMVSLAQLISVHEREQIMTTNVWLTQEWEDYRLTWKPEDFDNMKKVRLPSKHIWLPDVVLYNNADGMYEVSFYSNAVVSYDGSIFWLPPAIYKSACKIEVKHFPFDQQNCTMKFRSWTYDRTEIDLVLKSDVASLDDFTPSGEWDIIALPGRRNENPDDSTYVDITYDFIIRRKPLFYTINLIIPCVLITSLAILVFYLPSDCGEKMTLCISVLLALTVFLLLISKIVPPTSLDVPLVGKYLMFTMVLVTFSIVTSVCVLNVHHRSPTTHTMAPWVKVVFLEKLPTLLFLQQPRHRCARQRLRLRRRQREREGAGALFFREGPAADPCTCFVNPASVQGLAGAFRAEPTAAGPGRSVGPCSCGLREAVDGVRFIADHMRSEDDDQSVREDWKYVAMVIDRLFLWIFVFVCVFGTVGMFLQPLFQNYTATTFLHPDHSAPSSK
T3 sequence (Q05941 23-502): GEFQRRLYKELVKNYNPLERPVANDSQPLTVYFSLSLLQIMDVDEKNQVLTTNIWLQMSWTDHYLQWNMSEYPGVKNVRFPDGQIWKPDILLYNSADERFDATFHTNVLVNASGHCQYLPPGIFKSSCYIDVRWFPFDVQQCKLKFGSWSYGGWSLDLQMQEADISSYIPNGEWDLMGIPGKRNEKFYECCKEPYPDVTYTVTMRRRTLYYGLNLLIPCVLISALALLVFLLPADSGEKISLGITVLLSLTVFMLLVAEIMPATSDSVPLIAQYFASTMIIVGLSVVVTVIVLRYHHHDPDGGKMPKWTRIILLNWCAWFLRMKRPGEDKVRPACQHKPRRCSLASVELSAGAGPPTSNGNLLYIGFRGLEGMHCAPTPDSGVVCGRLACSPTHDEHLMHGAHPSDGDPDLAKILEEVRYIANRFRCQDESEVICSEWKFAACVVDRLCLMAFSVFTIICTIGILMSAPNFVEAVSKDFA

Turning to `O=C(Cc1cccnc1)N1CC2CNCC2C1` (stereo not shown) [Example 10-6], the “Rat α4β2 high through-put screening (HTS) result” value at rat α4β2 nAChR subtype [1] was “ND; failed HTS (the compound failed to inhibit, at 5 μM concentration, the binding of 5 nM ^3H-nicotine by at least 50%)”. For the same compound, the inhibitory constant (Ki) on human α4β2 nAChR subtype was found to be 489 nM. Also, the inhibition at 5 µM on α7 nAChR subtype is under 50%.

For `CCC(=O)N1CC2CNCC2C1` (stereo not shown) [Example 10-16, N-(propanoyl)-3,7-diazabicyclo[3.3.0]octane], the “activity in novel object recognition (NOR) task (recognition index)” value with rats was “active”.

As for `CC1(C)CC(C(=O)N2CC3CNCC3C2)C1` (stereo not shown) [Example 10-50], the “Rat α4β2 high through-put screening (HTS) result” value on rat α4β2 nAChR subtype [1] is listed as “ND; failed HTS (the compound failed to inhibit, at 5 μM concentration, the binding of 5 nM ^3H-nicotine by at least 50%)”. Moreover, the Ki on human α4β2 nAChR subtype was determined as 129 nM. For the same compound, the inhibition at 5 µM at α7 nAChR subtype is under 50%.

Consider `O=C(C(O)c1ccccc1)N1CC2CNCC(C2)C1` (stereo not shown) [Example 10-64], for which the “Rat α4β2 high through-put screening (HTS) result” value on rat α4β2 nAChR subtype [1] was “ND; failed HTS (the compound failed to inhibit, at 5 μM concentration, the binding of 5 nM ^3H-nicotine by at least 50%)”. Further, the Ki at human α4β2 nAChR subtype stood at 1530 nM. Also, the inhibition at 5 µM on α7 nAChR subtype was under 50%.

As for `COC(C(=O)N1CC2CNCC(C2)C1)c1ccccc1` (stereo not shown) [Example 10-65], the “Rat α4β2 high through-put screening (HTS) result” value on rat α4β2 nAChR subtype [1] is listed as “ND; failed HTS (the compound failed to inhibit, at 5 μM concentration, the binding of 5 nM ^3H-nicotine by at least 50%)”. The Ki at human α4β2 nAChR subtype amounted to 386 nM. The inhibition at 5 µM on α7 nAChR subtype was under 50%.

For the compound `O=C([C@@H]1CC2C=CC1C2)N1CC2CNCC(C2)C1` (stereo partly shown) [Example 10-95], the Ki was determined as 2.2 nM at human α4β2 nAChR subtype and 4.9 nM on rat α4β2 nAChR subtype [2]. Further, the inhibition at 5 µM at α7 nAChR subtype is under 50%.

On to `O=C(C1CCC[C@H]1O)N1CC2CNCC(C2)C1` (stereo partly shown) [Example 10-96], for which the Ki on human α4β2 nAChR subtype was 731 nM; on rat α4β2 nAChR subtype [2], 776 nM. Further, the inhibition at 5 µM on α7 nAChR subtype was under 50%.

As for `O=C(C1C2CCCCC21)N1CC2CNCC(C2)C1` (stereo not shown) [Example 10-97], at rat α4β2 nAChR subtype [1], the “Rat α4β2 high through-put screening (HTS) result” value was “ND; failed HTS (the compound failed to inhibit, at 5 μM concentration, the binding of 5 nM ^3H-nicotine by at least 50%)”. This compound came in with a Ki at human α4β2 nAChR subtype of 64.1 nM. Also, on α7 nAChR subtype, the inhibition at 5 µM is under 50%.

As for `O=C(C1CC=CCC1)N1CC2CNCC(C2)C1` (stereo not shown) [Example 10-98], the Ki on human α4β2 nAChR subtype turned out to be 134 nM; on α7 nAChR subtype ([3H]MLA 5 nM, rat hippocampus membranes, read-out: α7 Ki), 794 nM; at rat α4β2 nAChR subtype [2], 198 nM.

Take `O=C(Cn1ccnc1)N1CC2CNCC(C2)C1` [Example 10-99]: the results for the Ki on human α4β2 nAChR subtype and on rat α4β2 nAChR subtype [2] were 821 nM and 1320 nM, respectively. The inhibition at 5 µM at α7 nAChR subtype was under 50%.

In the case of `O=C(C1C[C@H]2C=C[C@@H]1CC2)N1CC2CNCC(C2)C1` (stereo partly shown) [Example 10-100], the Ki is 72.4 nM on human α4β2 nAChR subtype and 256 nM on rat α4β2 nAChR subtype [2]. The inhibition at 5 µM on α7 nAChR subtype is under 50%.

As for `O=C(C1CC=CCC1c1cccnc1)N1CC2CNCC(C2)C1` (stereo not shown) [Example 10-101], the values for the Ki on human α4β2 nAChR subtype and at rat α4β2 nAChR subtype [2] were 69.6 nM and 602 nM, respectively. The inhibition at 5 µM at α7 nAChR subtype was under 50%.

A word on the Ki: it is the equilibrium dissociation constant of an inhibitor or competing ligand from its target.
